Where two headings read alike, the source gives them in different places.
Tests used:
IRAK4 [1] = biological target: T1, IRAK4 (Homo sapiens (Human), UniProt Q9NWZ3); experiment: IRAK4 MSD degradation in OCI-LY10; type: cell-based
How it was run: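 Remaining IRAK4 quantified by electrochemiluminescent MSD sandwich assay with two anti-IRAK4 antibodies. Compounds were dosed as 8 concentrations in 1:3 steps from a 1 to 10 μM final top on OCI-LY10 cells, incubated 4 to 24 h at 37° C. under 5% CO2. DC50 fitted with a three-parameter logistic curve.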

IRAK4 [2] = biological target: T1, IRAK4; experiment: hPBMC IRAK4 degradation flow assay; type: cell-based; settings: hPBMC monocyte
Experimental: hPBMC IRAK4 degradation flow assay. Frozen PBMCs were thawed into RPMI with 10% FBS and allowed to recover. On the same day as thawed, PBMCs were plated in 96 well plate, 90 uL per well. Compound plates were prepared and a 10 point, 5-fold dilution was performed with a final DMSO concentration of 0.1%. Compound 10 μL per well was added, sealed and incubated at 37° C., 5% C02 for 20 hours (for 4 hour treatment, compounds were prepared and added the following day). […] Cells were spun down and washed two times with PBS/0.5% BSA, aspirated to pellet and placed into −80° C. freezer until further processing for flow. On the flow run day, PBMC plates were thawed and samples were transferred to PCR plates. The pre-perm staining cocktail (CD3 Ax488/CD8 BUV805/CD14 BUV395/CD16/56 BV711/CD19 BV785) was added to samples and incubated for 30 minutes at room temperature. Samples were washed two times and permeabilized with methanol for 10 minutes at 4° C. […] Samples were washed two times with PBS/BSA and run on a BD LSRFortessa. Mononuclear cells are gated by SSCH/FSCH and single cells. Monocytes are then gated through CD14 positive gate and lymphocytes are gated through CD14 negative gate. To determine absolute DC50s and max degradation values, MFI values were normalized to DMSO max and 20 hour 10 μM min control. Twenty hour dose curves were calculated using a 4 parameter logistic regression curve fit, no constraints (Top doses were removed if hook effects were observed and the bottom was constrained to 0).

OCI-LY10 = experiment: CTG Cell Viability Assay - OCI-LY10; type: cell-based, human; settings: Homo sapiens, OCI-LY10, 4 days, read-out: CTG Cell Viability Assay - OCI-LY10: Average external-IC50
How it was run: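 Viability read by CellTiter-Glo luminescence after 4 days at 37° C under 5% CO2 with compound (top 10 μM final, 1:3 steps, 9 doses, DMSO 0.2%). Three-parameter logistic fit gave IC50.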

IL-6 = IL-6 secretion in hPBMC using R848 stimulation; type: cell-based, human; settings: Homo sapiens, 20 h
[3] = OCI-LY10, 4 hrs, MSD, read-out: IRAK4 MSD degradation in OCI-LY10 at 4 hrs: Average external-Abs DC50
[4] = 20 hr, flow assay, read-out: IRAK4 degradation in hPBMC monocyte at 20 hr: Average external Abs DC50
[5] = OCI-LY10, 4 hrs, read-out: IRAK4 MSD degradation in OCI-LY10 at 4 hrs: DC50
[6] = 20 hrs, read-out: IRAK4 degradation in hPBMC monocyte: DC50
[7] = OCI-LY10, 24 hrs, MSD, read-out: IRAK4 MSD degradation in OCI-LY10 at 24 hrs: Average external-Abs DC50

T1 sequence (Q9NWZ3 whole entry): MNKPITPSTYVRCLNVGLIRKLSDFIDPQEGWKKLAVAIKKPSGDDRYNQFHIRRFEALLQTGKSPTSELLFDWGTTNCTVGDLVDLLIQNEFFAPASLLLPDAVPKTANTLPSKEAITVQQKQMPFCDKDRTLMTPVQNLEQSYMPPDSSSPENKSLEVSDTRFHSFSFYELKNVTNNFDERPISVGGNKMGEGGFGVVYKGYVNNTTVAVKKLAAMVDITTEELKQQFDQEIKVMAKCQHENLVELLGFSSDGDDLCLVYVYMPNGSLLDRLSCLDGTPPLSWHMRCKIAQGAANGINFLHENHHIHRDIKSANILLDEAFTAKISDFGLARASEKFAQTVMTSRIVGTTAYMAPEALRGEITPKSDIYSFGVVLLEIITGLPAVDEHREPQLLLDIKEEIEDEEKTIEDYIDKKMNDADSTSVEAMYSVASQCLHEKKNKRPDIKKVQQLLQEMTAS

Row | SMILES | DC50 (IRAK4 [2]; [4]) | IC50 (OCI-LY10; OCI-Ly10, 96 h) | DC50 (IRAK4 [1]; [5]) | DC50 (IRAK4 [2]; [6]) | further results
1 | Cn1c(=O)n(C2CCC(=O)NC2=O)c2cccc(CCCN3CC4(CCN(C(=O)[C@H]5CC[C@H](n6cc(NC(=O)c7cnn8ccc(N9C[C@H]%10C[C@@H]9CO%10)nc78)c(C(F)F)n6)CC5)CC4)C3)c21 (some centres unmarked) [I-407] | < 10 nM | > 1000 nM | – | – | DC50 (IRAK4 [1]; [3]): < 10 nM
2 | Cn1c(=O)n(C2CCC(=O)NC2=O)c2ccc(C#CCCCNC[C@H]3CC[C@H](n4cc(NC(=O)c5cnn6ccc(N7C[C@H]8C[C@@H]7CO8)nc56)c(C(F)F)n4)CC3)cc21 (stereo in doubt) [I-512, N-[3-(difluoromethyl)-1-[4-[[5-[1-(2,6-dioxo-3-piperidyl)-3-methyl-2-oxo-benzimidazol-5-yl]pent-4-ynylamino]methyl]cyclohexyl]pyrazol-4-yl]-5-(2-oxa-5-azabicyclo[2.2.1]heptan-5-yl)pyrazolo[1,5-a]pyrimidine-3-carboxamide] | – | > 1000 nM | > 1000 nM | 100 to 1000 nM | –
3 | Cc1ccc(-c2nn([C@H]3CC[C@H](CN4CCC(OCCCc5cccc6c5n(C)c(=O)n6C5CCC(=O)NC5=O)CC4)CC3)cc2NC(=O)c2cnn3ccc(N4C[C@H]5C[C@@H]4CO5)nc23)nc1 (some centres unmarked) [I-484] | – | > 1000 nM | 100 to 1000 nM | 100 to 1000 nM | –
4 | Cn1c(=O)n(C2CCC(=O)NC2=O)c2ccc(C#CCOC3CCN(C[C@H]4CC[C@H](n5cc(NC(=O)c6cnn7ccc(N8C[C@H]9C[C@@H]8CO9)nc67)c(C(F)F)n5)CC4)CC3)cc21 (some centres unmarked) [I-483] | – | – | – | – | IC50 (IL-6; read-out: IL-6 Secretion in hPBMC, R848 as stim, t = 20 h: IC50): 1 to 10 nM; IC50 (OCI-LY10; 96 h): > 1000 nM
5 | Cn1c(=O)n(C2CCC(=O)NC2=O)c2cccc(CCCOC[C@H]3CN(C[C@H]4CC[C@H](n5cc(NC(=O)c6cnn7ccc(N8CCOCC8)nc67)c(C(F)F)n5)CC4)CCO3)c21 (some centres unmarked) [I-430] | < 10 nM | – | – | – | IC50 (IL-6; hPBMC, R848 as stim, t = 20 h): 1 to 10 nM
6 | Cn1c(=O)n(C2CCC(=O)NC2=O)c2cccc(C#CCOC3CCN(C[C@H]4CC[C@H](n5cc(NC(=O)c6cnn7ccc(N8CCCOCC8)nc67)c(C(F)F)n5)CC4)CC3)c21 (some centres unmarked) [I-522] | – | 100 to 500 nM | < 10 nM | < 10 nM | –
7 | Cn1c(=O)n(C2CCC(=O)NC2=O)c2cccc(CCCOC3CCN(CCCCn4ncc(NC(=O)c5cnn6ccc(N7CCOCC7)nc56)c4C(F)F)CC3)c21 (centres unmarked) [I-488] | – | > 1000 nM | 100 to 1000 nM | 100 to 1000 nM | –
8 | CN(CCCOCCCNc1cccc2c1C(=O)N(C1CCC(=O)NC1=O)C2=O)C[C@H]1CC[C@H](n2cc3cc(NC(=O)c4cccc(C(F)(F)F)n4)c(C(C)(C)O)cc3n2)CC1 (some centres unmarked) [I-333] | < 10 nM | 100 to 500 nM | – | – | DC50 (IRAK4 [1]; [3]): 10 to 100 nM; DC50 (IRAK4 [1]; [7]): 10 to 100 nM
9 | Cn1c(=O)n(C2CCC(=O)NC2=O)c2cccc(CC3CCN(c4ccc(CN5CCC(n6cc(NC(=O)c7cnn8ccc(N9C[C@H]%10C[C@@H]9CO%10)nc78)c(C(F)F)n6)CC5)cc4)CC3)c21 (some centres unmarked) [I-520] | – | > 1000 nM | 10 to 100 nM | < 10 nM | –
10 | Cn1c(=O)n(C2CCC(=O)NC2=O)c2cccc(CCCN3CCOC4(CCN(C[C@H]5CC[C@H](n6cc(NC(=O)c7cnn8ccc(N9C[C@H]%10C[C@@H]9CO%10)nc78)c(C(F)F)n6)CC5)CC4)C3)c21 (some centres unmarked) [I-434] | < 10 nM | – | – | – | IC50 (IL-6; hPBMC, R848 as stim, t = 20 h): < 1 nM
11 | C[C@@H](C#Cc1cccc2c1n(C)c(=O)n2C1CCC(=O)NC1=O)OC1CCN(C[C@H]2CC[C@H](n3cc(NC(=O)c4cnn5ccc(N6C[C@H]7C[C@@H]6CO7)nc45)c(C(F)F)n3)CC2)CC1 (some centres unmarked) [I-544] | – | > 1000 nM | 10 to 100 nM | 100 to 1000 nM | –
12 | CC(C)(O)c1cc2nn([C@H]3CC[C@H](CN4CCC(COCCCNc5cccc6c5C(=O)N(C5CCC(=O)NC5=O)C6=O)CC4)CC3)cc2cc1NC(=O)c1cccc(C(F)(F)F)n1 (some centres unmarked) [I-376] | < 10 nM | 100 to 500 nM | – | – | DC50 (IRAK4 [1]; [3]): 10 to 100 nM; DC50 (IRAK4 [1]; [7]): 10 to 100 nM
13 | Cn1c(=O)n(C2CCC(=O)NC2=O)c2cccc(CCCOC3CCN(C[C@H]4CC[C@H](n5cc(NC(=O)c6cnn7ccc(N8C[C@H]9CC[C@@H](C8)O9)nc67)c(C(F)F)n5)CC4)CC3)c21 (some centres unmarked) [I-521] | – | > 1000 nM | 10 to 100 nM | < 10 nM | –

Reference: US11352350B2, “IRAK degraders and uses thereof” (Kymera Therapeutics, Inc., priority 2018, dated 2022)
